Source: ChEMBL document CHEMBL2177101, “Role of the CAI-1 fatty acid tail in the Vibrio cholerae quorum sensing response” (J Med Chem, 2012)
pEC50: −log10 of the molar value.

Experiments:
[1] = Agonist activity at CqsS in Vibrio cholerae MM920 harboring deltacqsA, deltaluxQ and pBB1 after 4 hrs by bioluminescence assay; assay type: functional
Vibrio cholerae = experiment: Agonist activity at CqsS in Vibrio cholerae MM920 harboring deltacqsA, deltaluxQ and pBB1 at 50000 nM after 4 hrs by bioluminescence assay relative to CAI-1; assay type: functional

Row | Structure (SMILES) | pEC50 [1] | Emax (Vibrio cholerae) [%]
1 | CCCCc1ccc(COC(=O)C(O)CC)cc1 (racemic) | 6.72 | 
2 | CCCCc1cccc(COC(=O)C(O)CC)c1 (racemic) | 5.43 | 
3 | CC/C=C/CCCCOC(=O)C(O)CC (racemic) | 6.08 | 
4 | CCCC/C=C/CCOC(=O)C(O)CC (racemic) | 6.11 | 
5 | CCCCCCCCOC(=O)[C@@H](N)CC | 7.52 | 
6 | CCCCCc1ccc(COC(=O)C(O)CC)cc1 (racemic) | 6.17 | 
7 | CCCCc1ccccc1COC(=O)C(O)CC (racemic) | < 4.30 | 11
8 | CCCCC#CCCOC(=O)C(O)CC (racemic) | 5.70 | 
9 | CCc1cccc(CCCOC(=O)C(O)CC)c1 (racemic) | 5.03 | 
10 | CCCCCCOCCOC(=O)C(O)CC (racemic) | 5.62 | 
11 | CCCCC[C@@H]1C[C@H]1COC(=O)C(O)CC (mixture of isomers) | 5.92 | 
12 | CCCCCOCCOC(=O)C(O)CC (racemic) | 5.36 | 
13 | CCCCC/C=C/COC(=O)[C@@H](O)CC | 7.41 | 
14 | CCCCCCCCNC(=O)[C@@H](O)CC | 5.82 | 
15 | CCCCCCOC(=O)C(O)CC (racemic) | 6.00 | 
16 | CCc1ccc(CCCOC(=O)C(O)CC)cc1 (racemic) | 6.72 | 
17 | CCC/C=C/CCCOC(=O)C(O)CC (racemic) | 6.57 | 

Row | Structure (SMILES) | pEC50 [1] | Emax (Vibrio cholerae) [%]
18 | CCC(O)C(=O)OCCOCCOCCOC (racemic) | 5.00 | 
19 | CCOCCOCCOC(=O)C(O)CC (racemic) | < 4.30 | 31
20 | CCC/C=C\CCCOC(=O)C(O)CC (racemic) | 5.74 | 
21 | CCCCCCCCCC(=O)[C@@H](N)CC | 7.55 | 
22 | CCCCC/C=C\COC(=O)C(O)CC (racemic) | 6.15 | 
23 | CC/C=C\CCCCOC(=O)C(O)CC (racemic) | 6.24 | 
24 | CCCCCC#CCOC(=O)C(O)CC (racemic) | 6.26 | 
25 | CCCCc1ccc(COC(=O)[C@@H](O)CC)cc1 | 6.93 | 
26 | CCCCCCCOC(=O)C(O)CC (racemic) | 6.46 | 
27 | CCc1ccccc1CCCOC(=O)C(O)CC (racemic) | < 4.30 | 28
28 | CCCCCCCCCOC(=O)C(O)CC (racemic) | 7.14 | 
29 | CCCC/C=C\CCOC(=O)C(O)CC (racemic) | 6.11 | 
30 | CCCCCCCCCCOC(=O)C(O)CC (racemic) | 6.14 | 
31 | CCCCCCCCOC(=O)[C@H](N)CC | 7.48 | 
32 | CCCCOC(=O)C(O)CC (racemic) | < 4.30 | 23
33 | CCCCCc1cccc(COC(=O)C(O)CC)c1 (racemic) | 5.80 | 
34 | CCCCC/C=C/COC(=O)C(O)CC (racemic) | 7.27 | 
